According to patent US6576430B1, “Detection of ligands by refractive surface methods” (Becton, Dickinson and Company, priority 2000, dated 2003):

How the values were obtained:
MBP = biological target: T1, MBP (Escherichia coli, UniProt P0AEX9); test: SPR (BIACORE) detection of maltose binding to immobilized MBP
T1 construct: made in house
Method: MBP was prepared from osmotic shock lysates and coupled to a CM5 (carboxymethyl dextran) chip (BIACORE) using standard EDC/NHS procedures performed with reagents from the BIACORE EDC/NHS coupling kit. MBP was 10 μM at pH 4.5 in 10 mM NaOAc. Hepes Buffered Saline-EP (HBS-EP: 0.01 M HEPES pH 7.4, 0.15 M NaCl, 3 mM EDTA, 0.005% surfactant P20; BIACORE™ AB) was used as an eluent (O'Shannessy et al., 1992) supplemented with 5 mM CaCl2. Ethanolamine (1.0 M, pH 8.0) was used to quench unreacted esters and was also found to be effective at removing non-covalently adsorbed protein from the chip surface. […] Report points were collected at 100 seconds post injection. Report points from injections over a blank surface were subtracted. Data points were discarded for data collected during obvious anomalies, such as air bubbles. Running buffer was HBS-EPA (BIACORE) supplemented with 5 mM CaCl2.
After regeneration the surface was allowed to stabilize for 300 seconds before additional ligand injections.

[1] = biological target: T2, Tissue transglutaminase (tTG) (Cavia cutleri, UniProt P08587); test: SPR (BIACORE) detection of calcium binding to immobilized tissue transglutaminase
T2 construct: purchased Sigma
T2 sequence (P08587 1-690): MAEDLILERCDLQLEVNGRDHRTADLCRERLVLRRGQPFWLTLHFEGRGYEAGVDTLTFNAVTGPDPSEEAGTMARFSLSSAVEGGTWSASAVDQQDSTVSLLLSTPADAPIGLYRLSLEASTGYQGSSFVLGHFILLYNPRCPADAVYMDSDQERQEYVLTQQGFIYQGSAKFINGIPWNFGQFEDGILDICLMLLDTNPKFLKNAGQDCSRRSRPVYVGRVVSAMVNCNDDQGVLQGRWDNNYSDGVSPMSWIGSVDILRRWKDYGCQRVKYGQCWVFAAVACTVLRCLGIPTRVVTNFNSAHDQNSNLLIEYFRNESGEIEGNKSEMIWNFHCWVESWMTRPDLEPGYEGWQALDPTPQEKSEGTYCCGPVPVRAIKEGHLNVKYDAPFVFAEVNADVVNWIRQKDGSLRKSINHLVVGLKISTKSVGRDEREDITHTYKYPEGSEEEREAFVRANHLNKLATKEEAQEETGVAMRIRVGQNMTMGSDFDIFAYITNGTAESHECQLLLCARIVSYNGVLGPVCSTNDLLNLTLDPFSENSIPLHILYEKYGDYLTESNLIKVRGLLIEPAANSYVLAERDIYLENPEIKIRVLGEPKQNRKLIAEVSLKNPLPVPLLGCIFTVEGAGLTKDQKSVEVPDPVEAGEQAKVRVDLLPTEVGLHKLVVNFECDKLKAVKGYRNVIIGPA
Method: Tissue transglutaminase (tTG) was obtained from Sigma and prepared at 1.3 mg/mL at pH 4.5 in 10 mM NaOAc. A surface bearing 2500 RU of tTG was prepared using standard EDC/NHS coupling chemistry and was used for all experiments. Ethanolamine (1.0 M, pH 8.0) was used to quench unreacted esters. Calcium chloride was prepared in dH2O at the desired concentrations. Injections were 20 μL at a flow rate of 10 μL/min (2 minute contact time). Report points were collected at 100 seconds post injection. Report points from injections over a blank surface were subtracted. Typical injections over the blank control surface gave minimal (<5 RU) signals, but were subtracted nonetheless. Injections were randomized relative to concentration. Data points were discarded for data collected during obvious anomalies, such as air bubbles. Running buffer was HBS-EP (BIACORE) without calcium supplementation. Calcium was removed from transglutaminase by injection of 5 mM EDTA pH 8.0. After EDTA injection the surface was allowed to stabilize for 300 seconds before additional calcium injections.

tTG = biological target: T3, tTG (Homo sapiens, UniProt P21980); details: reported value; read-out: reported Kd of calcium for the protein; cited from earlier work
T3 sequence (P21980 1-687): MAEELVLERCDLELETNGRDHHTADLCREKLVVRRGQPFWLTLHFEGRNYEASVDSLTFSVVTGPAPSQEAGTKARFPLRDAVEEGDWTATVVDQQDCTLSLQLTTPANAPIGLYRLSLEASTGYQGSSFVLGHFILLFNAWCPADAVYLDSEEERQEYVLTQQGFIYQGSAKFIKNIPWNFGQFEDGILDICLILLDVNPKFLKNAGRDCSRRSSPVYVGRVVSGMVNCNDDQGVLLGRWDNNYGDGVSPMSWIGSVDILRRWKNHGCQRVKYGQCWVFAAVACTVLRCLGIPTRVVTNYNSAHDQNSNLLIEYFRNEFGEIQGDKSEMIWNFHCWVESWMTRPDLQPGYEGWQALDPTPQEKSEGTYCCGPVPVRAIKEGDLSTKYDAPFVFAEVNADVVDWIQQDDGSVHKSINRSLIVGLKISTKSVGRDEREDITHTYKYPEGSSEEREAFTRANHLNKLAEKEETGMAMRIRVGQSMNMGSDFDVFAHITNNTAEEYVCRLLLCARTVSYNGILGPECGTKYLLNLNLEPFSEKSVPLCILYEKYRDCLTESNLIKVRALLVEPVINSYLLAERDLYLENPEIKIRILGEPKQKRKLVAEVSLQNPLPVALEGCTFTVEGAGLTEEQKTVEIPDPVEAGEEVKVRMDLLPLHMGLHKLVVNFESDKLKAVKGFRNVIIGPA

[2] = biological target: T4, Bovine brain calmodulin (CaM) (Bos taurus, UniProt P62157); test: SPR (BIACORE) detection of calcium binding to immobilized calmodulin
T4 construct: Bovine brain calmodulin (CaM) was obtained from Calbiochem; purchased Calbiochem; host or cells: bovine brain
Method: Bovine brain calmodulin (CaM) was obtained from Calbiochem and immobilized onto carboxymethyl dextran gold surfaces using standard BIACORE EDC/NHS coupling chemistry. HBS-EP was used as an eluent. CaM was injected at 0.5 mg/mL in 10 mM sodium acetate, pH 4.0 (54 minute injection). This procedure immobilized approximately 480 RU of calmodulin. During the immobilizations, the flow rate was 5 μL/min. For some experiments, the BIACORE™ 3000 was used. For others, a BIACORE™ Upgrade was used. In general, injections were run at a flow rate of 5 or 10 μL/min, in HBP-EP buffer. Varying concentrations of CaCl2 in HBS-EP (3.5-50 mM) were injected on the CaM and blank surfaces.

[3] = biological target: T5, Glucose/Galactose Binding Protein (GGBP) (Escherichia coli, UniProt P0AEE5); test: SPR (BIACORE) response of saccharides injected over immobilized GGBP surface; details: surface bearing 2000 RU of GGBP; blank subtracted
T5 construct: made in house
T5 sequence (P0AEE5 24-332 limits assumed): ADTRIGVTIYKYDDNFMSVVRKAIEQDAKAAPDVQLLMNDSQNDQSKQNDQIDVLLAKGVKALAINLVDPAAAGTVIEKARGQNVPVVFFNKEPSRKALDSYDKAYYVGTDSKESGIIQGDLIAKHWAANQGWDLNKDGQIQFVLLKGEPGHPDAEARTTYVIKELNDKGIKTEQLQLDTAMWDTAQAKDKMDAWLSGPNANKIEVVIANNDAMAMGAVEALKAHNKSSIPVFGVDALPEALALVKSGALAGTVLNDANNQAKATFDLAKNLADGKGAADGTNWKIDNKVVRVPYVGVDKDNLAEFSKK
Method: Glucose/Galactose Binding Protein (GGBP) was prepared from osmotic shock lysates and coupled to the CM5 chip surface at 20 μM at pH 4.5 in 10 mM NaOAc using standard NHS/EDC procedures. Ethanolamine (1.0 M, pH 8.0) was used to quench unreacted esters and was also found to be effective at removing non-covalently adsorbed protein from the chip surface. Buffer flow was maintained overnight to remove additional non-covalently bound GGBP from the surface before ligand injections were performed. A surface bearing 2000 RU of GGBP was used for experiments. Ligands were prepared in dH2O at the desired concentrations. Injections were 20 μL at a flow rate of 10 μL/min (2 minute contact time). Report points were collected at 100 seconds post injection. Report points from injections over a blank surface were subtracted. Typical injections over the blank control surface gave minimal (<5 RU) signals, but were subtracted nonetheless. Ligand injections were repeated 3-5 times and the order of injection was reversed periodically. Data points were discarded for data collected during obvious anomolies, such as air bubbles. Remaining data was subjected to Q tests and error represents single standard deviations. A single set of sugar solutions was used for injection over the control and test surfaces. Running buffer was HBS-EP (BIACORE) supplemented with 5 mM CaCl2. Bound GGBP ligands were removed either by injection of 100 mM α-methyl mannoside in 10 mM NaOAc pH 4.5 or by 500-1000 seconds of running buffer wash.

OC[C@H]1O[C@H](O[C@H]2[C@H](O)[C@@H](O)C(O)O[C@@H]2CO)[C@H](O)[C@@H](O)[C@@H]1O (mixture of isomers) [maltose]
change in RUs on injection over the MBP surface (MBP): reproducible net decrease in RUs

[Ca+2].[Cl-].[Cl-] [calcium, Calcium chloride]
change in SPR response on calcium binding to tTG ([1]; SPR, immobilized tTG): positive change in response | EC50 ([1]; surface bearing 2500 RU of tTG, running buffer without calcium, read-out: half-maximal response of tTG): 500 µM | Kd (tTG): ~1000 µM | signal over the CaM surface during injection ([2]; 50 mM CaCl2, blank surface gave 1502 RU): 1350 RU | change in SPR signal on CaM surface relative to blank surface ([2]; 3.5-50 mM CaCl2 in HBS-EP, approximately 480 RU of calmodulin): reduction in signal

OC[C@H]1O[C@H](O[C@H]2[C@H](O)[C@@H](O)[C@@H](O[C@H]3[C@H](O)[C@@H](O)[C@@H](O[C@H]4[C@H](O)[C@@H](O)C(O)O[C@@H]4CO)O[C@@H]3CO)O[C@@H]2CO)[C@H](O)[C@@H](O)[C@@H]1O (stereo partly drawn) [maltotetraose]
response in relative RU on injection over the GGBP surface [3]: negligible or slightly positive increase in relative RU

cyclodextrins
response in relative RU on injection over the GGBP surface [3]: negligible or slightly positive increase in relative RU

maltotriose
response in relative RU on injection over the GGBP surface [3]: negligible or slightly positive increase in relative RU
